Like-named read-outs stand apart in the source and are kept apart here.

Experiment [1] concerns the target T1, single-chain plasminogen activator (Homo sapiens, UniProt P00750).
T1 construct: culturing human normal tissue derived cells such as cells derived from human embryonic kidney, intestines, lungs; endogenous in cells; host or cells: human normal tissue derived cells (e.g. human embryonic kidney or lung cells); secreted protein purified from the culture liquor in the presence of aprotinin
Put plainly: Influence of proteinase inhibitors on hydrolysis of Boc-Phe-Ser-Arg-MCA, single-chain form. Format: biochemical. How it is done: (§1) To 50 µℓ of either each of the substances of this invention (100 U/mt) or urokinase (100 IU/mℓ) were added 50 µℓ of one of a number of solutions of various proteinase inhibitors and 300 µℓ of a 0.05 M tris-HCt buffer (pH 8.0) containing 0.1 M sodium chloride, and each reaction was effected at 37°C for 5 minutes. Thereafter, 100 µℓ of 0.1 mM of Boc-Phe-Ser-Arg-MCA (Peptide Institute, Inc.) was added, and each reaction was effected at 37°C.for 60 minutes. Thereafter, 0.5 mℓ of 20% acetic acid was added to terminate the reaction which was then measured for the formed aminomethylcoumarin at an excitation wavelength of 370 nm, a slit width of 2 nm, an emission wavelength of 460 nm and a slit width of 2 nm to determine the hydrolysis activity.
(§2) The concentrations (IC50) of the proteinase inhibitors which inhibit 50% of the activity of the substances of this invention were determined and the results are shown in Table 2.

The target of experiment [2] is T2, double-chain plasminogen activator (Homo sapiens, UniProt P00750).
T2 construct: endogenous in cells; host or cells: human normal tissue derived cells (e.g. human embryonic kidney or lung cells); secreted protein purified from the culture liquor and converted by enzyme (plasmin) treatment or incubation
The experiment can be described thus: Influence of proteinase inhibitors on hydrolysis of Boc-Phe-Ser-Arg-MCA, double-chain form. Format: biochemical. The protocol:
as §1, §2

T2 sequence (P00750 311-562 limits assumed): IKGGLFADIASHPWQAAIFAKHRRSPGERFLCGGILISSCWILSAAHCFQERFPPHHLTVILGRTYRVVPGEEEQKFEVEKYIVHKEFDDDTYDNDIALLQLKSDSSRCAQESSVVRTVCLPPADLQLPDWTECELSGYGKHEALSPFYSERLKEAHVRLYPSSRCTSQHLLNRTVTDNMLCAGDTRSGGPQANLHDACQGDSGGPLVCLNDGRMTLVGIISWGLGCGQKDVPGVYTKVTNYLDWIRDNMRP
T2 sequence (P00750 36-310 partner limits assumed): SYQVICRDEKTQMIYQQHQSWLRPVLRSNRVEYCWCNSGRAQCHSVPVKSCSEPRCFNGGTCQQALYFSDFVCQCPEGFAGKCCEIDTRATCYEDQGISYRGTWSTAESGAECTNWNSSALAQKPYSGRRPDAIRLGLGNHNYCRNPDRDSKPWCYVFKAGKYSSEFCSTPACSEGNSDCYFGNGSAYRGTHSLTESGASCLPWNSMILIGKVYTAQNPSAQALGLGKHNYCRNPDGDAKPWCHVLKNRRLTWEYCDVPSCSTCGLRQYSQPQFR
T1 sequence (P00750 36-562): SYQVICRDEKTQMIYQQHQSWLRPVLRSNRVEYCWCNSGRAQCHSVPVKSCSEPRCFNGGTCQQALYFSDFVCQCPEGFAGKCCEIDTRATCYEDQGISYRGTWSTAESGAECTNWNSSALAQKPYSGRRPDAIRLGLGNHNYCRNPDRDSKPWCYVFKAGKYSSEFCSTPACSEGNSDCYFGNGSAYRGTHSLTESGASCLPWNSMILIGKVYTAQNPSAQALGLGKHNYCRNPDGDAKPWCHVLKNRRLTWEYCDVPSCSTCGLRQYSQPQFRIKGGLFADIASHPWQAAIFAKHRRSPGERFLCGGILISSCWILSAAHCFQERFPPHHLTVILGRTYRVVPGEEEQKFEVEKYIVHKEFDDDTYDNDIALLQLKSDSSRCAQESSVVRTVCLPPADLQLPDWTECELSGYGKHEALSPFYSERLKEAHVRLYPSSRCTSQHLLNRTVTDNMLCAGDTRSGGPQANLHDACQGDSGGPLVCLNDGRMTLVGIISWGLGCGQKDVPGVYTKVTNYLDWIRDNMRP

One may read the IC50 as the midpoint of a concentration-inhibition curve. For `CCOC(=O)c1ccc(OC(=O)CCCCCNC(=N)N)cc1` [FOY], the 50% inhibitory concentration (IC50) turned out to be 17 µM in experiment [1] (Single-Chain Structure 100 U/mℓ, substrate Boc-Phe-Ser-Arg-MCA, 37°C 60 minutes, read-out: IC50) and 92 µM in experiment [2] (Double-Chain Structure 100 U/mℓ, substrate Boc-Phe-Ser-Arg-MCA, 37°C 60 minutes, read-out: IC50).
Take `CC(=O)N[C@@H](CC(C)C)C(=O)N[C@@H](CC(C)C)C(=O)N[C@H](C=O)CCCNC(=N)N` [Leupeptin]: the figures for the IC50 in experiment [1] and in experiment [2] were 280 µM and 570 µM, respectively.
